Experimental data from PubChem BioAssay (NCI).
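In this assay, cells in 96-well plates receive the compound at five concentrations for 48 hours. Endpoints are linearly interpolated between the surrounding concentrations. Abbreviation: GI50, concentration required for 50% inhibition of growth. The concentration for full growth arrest is given as TGI.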

Columns and labels:
Experiment in all cases: NCI-60 cell line screen, 48 h
[1] = tested on: T-47D breast
[2] = tested on: TK-10 renal
[3] = tested on: HOP-92 NSCLC
[4] = tested on: M14 melanoma
[5] = tested on: EKVX NSCLC
[6] = tested on: SK-MEL-2 melanoma
[7] = tested on: RXF 393 renal
[8] = tested on: MDA-N
[9] = tested on: DU-145 prostate
[10] = tested on: A498 renal

Row | SMILES | TGI [1] | TGI [2] | TGI [3] | TGI [4] | TGI [5] | TGI [6] | TGI [7] | TGI [8] | TGI [9] | TGI [10] | GI50 [1] | GI50 [2] | GI50 [3] | GI50 [4] | GI50 [5] | GI50 [10] | GI50 [7] | GI50 [8] | GI50 [9]
1 | CCOC(=O)c1cc2cc(CSc3ccccc3)ccc2oc1=O | > 100 µM | > 100 µM | > 100 µM | > 100 µM | > 100 µM | > 100 µM | > 100 µM | > 100 µM | > 100 µM |  |  |  |  |  |  |  |  |  | 
2 | CC(C)(N=NC(C)(C)C1=NCCN1)C1=NCCN1 | > 100 µM | > 100 µM | > 100 µM | > 100 µM | > 100 µM | > 100 µM | > 100 µM | > 100 µM | > 100 µM | > 100 µM |  |  |  |  |  |  |  |  | 
3 | Cc1ccnc2c1c(=O)c1ccccc1n2C | > 100 µM | 89.8 µM | > 100 µM | > 100 µM | > 100 µM | > 100 µM | > 100 µM | > 100 µM | > 100 µM | > 100 µM |  |  |  |  |  |  |  |  | 
4 | C/C(=N/NC(=S)N(Cc1ccccn1)Cc1ccccn1)c1cnccn1 | > 33.8 µM | 19.2 µM | > 37.6 µM | > 35.9 µM | 7.4 µM | 26 µM | 17.4 µM | 31.2 µM | > 33.3 µM | > 100 µM |  |  |  |  |  |  |  |  | 
5 | N#Cc1nc(Cc2ccccc2)oc1N | > 100 µM | > 100 µM |  | > 100 µM | > 100 µM | > 100 µM | > 100 µM | > 100 µM | > 100 µM |  |  |  |  |  |  |  |  |  | 
6 | CNC(=O)CNC(=O)CCC(=O)N(C)C | > 100 µM | > 100 µM | > 100 µM | > 100 µM | > 100 µM | > 100 µM |  | > 100 µM | > 100 µM | > 100 µM |  |  |  |  |  |  |  |  | 
7 | OCC1CCCCN1Cc1nc2ccc(Cl)cc2[nH]1 (stereo not given) | > 100 µM | > 100 µM | > 100 µM | > 100 µM | > 100 µM | > 100 µM | > 100 µM | > 100 µM | > 100 µM | > 100 µM |  |  |  |  |  |  |  |  | 
8 | CCC(/C=C/c1ccccc1)=N\NC(=S)N/N=C(/C=C/c1ccccc1)CC | > 100 µM | > 100 µM | > 100 µM | > 100 µM | > 100 µM |  | > 100 µM | > 100 µM | > 100 µM | 59.8 µM |  |  |  |  |  |  |  |  | 
9 | CSc1cc(Cl)c(C)cc1S(=O)(=O)NC(=O)NNc1ccccn1 | > 100 µM |  |  | > 100 µM | > 100 µM | > 100 µM | > 100 µM | > 100 µM | > 100 µM | > 100 µM |  |  |  |  |  |  |  |  | 
10 | COc1cc2cnc3c(c2cc1OC)Cc1cc2c(cc1-3)OCO2 | > 100 µM | 2.83 µM | > 100 µM | > 100 µM | 55.9 µM |  | > 92.5 µM | > 100 µM | > 54.1 µM | 17.8 µM | 1.71 µM | < 0.01 µM | > 93.6 µM | < 0.0113 µM | 0.0279 µM | < 0.0183 µM | 0.0322 µM | > 100 µM | 0.0338 µM
11 | CCOC(=O)CC[C@@H](NC(=O)c1ccc(NCc2ccc3nc(OC)c(OC)nc3c2)cc1)C(=O)OCC | 58.3 µM | > 100 µM | 36.2 µM | 32 µM | > 100 µM | 40.6 µM | > 58.1 µM | > 85.2 µM | > 100 µM |  |  |  |  |  |  |  |  |  | 
12 | COC(=O)c1cc(C)ccc1CC(Cc1ccccc1C)C(=O)OC (stereo not given) | > 100 µM | > 100 µM | 79.7 µM | > 100 µM | 76.3 µM |  | 77.6 µM | > 100 µM | > 100 µM | > 100 µM |  |  |  |  |  |  |  |  | 
13 | COc1ccc(/C=N/n2c(C)n[nH]c2=O)cc1 | > 100 µM |  |  | > 100 µM | > 100 µM | > 100 µM |  | > 100 µM | > 100 µM | > 100 µM |  |  |  |  |  |  |  |  | 
14 | C#CCSc1cnc2ccccc2c1Sc1c[nH]c2ccccc2c1=O | 42.5 µM | > 100 µM | 61.2 µM | > 100 µM | > 100 µM | 53.5 µM | 36.1 µM | > 100 µM | > 100 µM |  |  |  |  |  |  |  |  |  | 
15 | Cc1cc2c(cc1Cl)Sc1nnc(C)n1S2(=O)=O | 28.3 µM | 56.9 µM | 24.1 µM | 30.8 µM | 34.3 µM |  | 47.4 µM | 29.7 µM | 65 µM | 40.2 µM |  |  |  |  |  |  |  |  | 
16 | CC1(C)SC2C(NC(=O)Cc3ccccc3)C(=O)N2C1C(=O)O (stereo not given) | > 100 µM | > 100 µM | > 100 µM | > 100 µM | > 100 µM | > 100 µM | > 100 µM | > 100 µM | > 100 µM | > 100 µM |  |  |  |  |  |  |  |  | 
17 | COc1ccc(S(=O)Cc2cc(OC)ccc2OC)cc1 (stereo not given) | > 100 µM | > 100 µM | > 100 µM | > 100 µM | > 100 µM |  | > 100 µM | > 100 µM | > 100 µM | > 100 µM |  |  |  |  |  |  |  |  | 
18 | COc1ccc2c(-c3ccc(O)cc3)c(Oc3ccccc3)c(=O)oc2c1 | > 100 µM | 18.1 µM | > 87.8 µM | > 100 µM | > 77.8 µM | > 100 µM | > 47.8 µM | > 100 µM | > 50.8 µM | > 62 µM |  |  |  |  |  |  |  |  | 
19 | CSCCCNC(=O)c1csc([C@@H](CSC)NC(=O)CCNC(=O)[C@@H](NC(=O)OCC(Br)(Br)Br)C(C)O)n1 (stereo not given in full) |  | > 100 µM | > 100 µM | > 100 µM | > 100 µM | > 100 µM | > 100 µM | > 100 µM | > 100 µM | > 100 µM |  |  |  |  |  |  |  |  | 
20 | O=C(/C(Cl)=C/c1ccccc1)c1ccccc1 | 27.1 µM | 11.7 µM | 12.9 µM | 4.98 µM | 25.6 µM | 28.6 µM | 8.16 µM | 4.52 µM | 29.8 µM | 46.1 µM |  |  |  |  |  |  |  |  | 
21 | COc1ccc(C2c3cc4c(cc3OC(N3CCOCC3)C2C)OCO4)c(OC)c1 (stereo not given) | > 54.8 µM | 69.6 µM | 15.9 µM | 21.2 µM | > 85.3 µM | 21.7 µM | 10.7 µM | 5.25 µM | 54.7 µM | 15 µM |  |  |  |  |  |  |  |  | 
22 | CCOC(=O)c1c(NC(=O)c2ccccc2)sc2c1CCC2 | > 100 µM | > 100 µM |  | > 100 µM | > 100 µM | > 100 µM | > 100 µM | > 100 µM | > 100 µM | > 100 µM |  |  |  |  |  |  |  |  | 
23 | Cc1ccc(NC(=S)NNC(=O)c2cc(-c3ccccc3)nc3ccccc23)cc1C | 8.41 µM | 63.1 µM | 48.8 µM | 33.8 µM |  | 37.3 µM | 55.5 µM | 40 µM | 45.4 µM | 34.2 µM |  |  |  |  |  |  |  |  | 
